Key:
Experiment in all cases: biochemical
Parameters in all cases: DiscoverX KINOMEscan scanMAX competition binding panel, single concentration, percent of control; remaining binding: dose or concentration left out as unconfirmed
Details in all cases: KINOMEscan binding, percent of control; read-out: Table S4_SCANMAX REPORT - related to Fig. 1 / Percent Control
PYK2 = target: T1, PYK2 (Homo sapiens, UniProt Q14289)
T1 construct: gene PTK2B

ANKK1 = ANKK1 (Homo sapiens, UniProt Q8NFD2)
IKK-beta = target: T2, IKK-beta (Homo sapiens, UniProt O14920)
T2 construct: gene IKBKB

IGF1R = IGF1R (Homo sapiens, UniProt P08069)
EGFR(E746-A750del) = EGFR(E746-A750del) (Homo sapiens, UniProt P00533, DEL746-750)
MKK7 = target: T3, MKK7 (Homo sapiens, UniProt O14733)
T3 construct: gene MAP2K7

ITK = ITK (Homo sapiens, UniProt Q08881)
JNK2 = target: T4, JNK2 (Homo sapiens, UniProt P45984)
T4 construct: gene MAPK9

LZK = target: T5, LZK (Homo sapiens, UniProt O43283)
T5 construct: gene MAP3K13

PIK3CD = PIK3CD (Homo sapiens, UniProt O00329)
TBK1 = TBK1 (Homo sapiens, UniProt Q9UHD2)
EPHB2 = EPHB2 (Homo sapiens, UniProt P29323)
NEK7 = NEK7 (Homo sapiens, UniProt Q8TDX7)
BMX = BMX (Homo sapiens, UniProt P51813)
SGK3 = SGK3 (Homo sapiens, UniProt Q96BR1)
TAK1 = target: T6, TAK1 (Homo sapiens, UniProt O43318)
T6 construct: gene MAP3K7

PRKCQ = PRKCQ (Homo sapiens, UniProt Q04759)
[1] = target: T7, ABL1(F317L)-nonphosphorylated (Homo sapiens, UniProt P00519, F317L)
T7 construct: nonphosphorylated

Chain of PIK3CD (O00329 whole entry): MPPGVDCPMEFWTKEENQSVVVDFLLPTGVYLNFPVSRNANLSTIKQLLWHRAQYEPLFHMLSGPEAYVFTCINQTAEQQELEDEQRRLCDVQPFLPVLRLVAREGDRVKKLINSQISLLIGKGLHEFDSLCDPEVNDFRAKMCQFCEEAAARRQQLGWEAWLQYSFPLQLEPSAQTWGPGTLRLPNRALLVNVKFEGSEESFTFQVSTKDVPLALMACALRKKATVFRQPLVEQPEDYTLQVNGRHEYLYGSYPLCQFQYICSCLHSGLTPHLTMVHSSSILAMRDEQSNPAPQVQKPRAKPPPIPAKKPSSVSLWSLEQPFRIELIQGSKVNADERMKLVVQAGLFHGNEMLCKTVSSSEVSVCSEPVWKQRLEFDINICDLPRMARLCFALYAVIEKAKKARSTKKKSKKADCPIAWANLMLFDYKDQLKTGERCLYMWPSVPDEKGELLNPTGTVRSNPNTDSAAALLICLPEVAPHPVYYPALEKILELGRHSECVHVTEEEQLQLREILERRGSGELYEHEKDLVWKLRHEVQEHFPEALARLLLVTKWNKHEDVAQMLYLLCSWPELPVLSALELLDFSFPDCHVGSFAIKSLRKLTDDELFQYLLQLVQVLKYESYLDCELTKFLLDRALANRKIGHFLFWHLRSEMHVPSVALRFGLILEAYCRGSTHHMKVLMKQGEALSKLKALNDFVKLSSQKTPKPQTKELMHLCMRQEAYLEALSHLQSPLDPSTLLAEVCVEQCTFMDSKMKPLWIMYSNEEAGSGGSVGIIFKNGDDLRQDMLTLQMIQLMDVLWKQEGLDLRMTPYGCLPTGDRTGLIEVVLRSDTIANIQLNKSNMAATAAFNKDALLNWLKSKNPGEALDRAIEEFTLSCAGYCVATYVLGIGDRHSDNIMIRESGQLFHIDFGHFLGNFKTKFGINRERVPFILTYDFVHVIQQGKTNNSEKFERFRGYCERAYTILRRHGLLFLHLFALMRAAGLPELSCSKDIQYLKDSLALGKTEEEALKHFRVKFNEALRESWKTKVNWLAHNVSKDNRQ
Chain of PRKCQ (Q04759 whole entry): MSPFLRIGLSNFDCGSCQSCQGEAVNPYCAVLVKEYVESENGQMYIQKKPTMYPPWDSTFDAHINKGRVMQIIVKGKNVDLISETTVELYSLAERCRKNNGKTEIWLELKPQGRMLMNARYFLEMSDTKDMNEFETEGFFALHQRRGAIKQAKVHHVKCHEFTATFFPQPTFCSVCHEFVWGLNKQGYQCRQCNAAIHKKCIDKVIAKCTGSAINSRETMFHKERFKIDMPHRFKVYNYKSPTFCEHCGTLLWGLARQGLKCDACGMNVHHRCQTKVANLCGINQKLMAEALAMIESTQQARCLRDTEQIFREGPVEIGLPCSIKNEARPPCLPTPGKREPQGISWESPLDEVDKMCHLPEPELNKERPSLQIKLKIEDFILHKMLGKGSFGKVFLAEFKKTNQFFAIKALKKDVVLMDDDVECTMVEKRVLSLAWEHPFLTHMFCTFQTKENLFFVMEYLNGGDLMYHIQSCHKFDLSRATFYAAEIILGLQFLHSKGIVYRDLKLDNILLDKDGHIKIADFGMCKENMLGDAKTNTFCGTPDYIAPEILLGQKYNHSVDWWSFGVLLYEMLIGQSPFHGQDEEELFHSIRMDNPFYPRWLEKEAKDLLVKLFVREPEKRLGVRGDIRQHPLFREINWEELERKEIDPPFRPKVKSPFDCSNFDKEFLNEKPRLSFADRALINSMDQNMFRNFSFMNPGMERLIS
Chain of ANKK1 (Q8NFD2 whole entry): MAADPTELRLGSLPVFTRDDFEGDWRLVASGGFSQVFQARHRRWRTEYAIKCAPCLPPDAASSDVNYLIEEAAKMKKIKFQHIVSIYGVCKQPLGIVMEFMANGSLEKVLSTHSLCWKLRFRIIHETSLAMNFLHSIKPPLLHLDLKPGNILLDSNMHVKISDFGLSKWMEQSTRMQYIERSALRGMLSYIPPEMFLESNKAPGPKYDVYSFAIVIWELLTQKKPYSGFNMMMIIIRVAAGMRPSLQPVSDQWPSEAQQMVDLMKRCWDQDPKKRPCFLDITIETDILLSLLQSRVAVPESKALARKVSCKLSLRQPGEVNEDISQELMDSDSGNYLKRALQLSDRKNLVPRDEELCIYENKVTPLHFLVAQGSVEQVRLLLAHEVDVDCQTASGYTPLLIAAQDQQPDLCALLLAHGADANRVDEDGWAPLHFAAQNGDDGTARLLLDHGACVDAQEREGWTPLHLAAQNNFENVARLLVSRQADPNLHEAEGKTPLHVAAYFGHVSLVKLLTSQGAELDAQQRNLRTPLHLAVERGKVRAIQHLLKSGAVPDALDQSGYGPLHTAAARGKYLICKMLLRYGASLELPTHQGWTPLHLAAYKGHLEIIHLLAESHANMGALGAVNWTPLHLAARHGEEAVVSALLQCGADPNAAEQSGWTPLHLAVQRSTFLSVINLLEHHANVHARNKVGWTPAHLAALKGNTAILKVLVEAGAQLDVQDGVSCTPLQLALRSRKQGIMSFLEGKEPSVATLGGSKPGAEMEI
Chain of EGFR(E746-A750del) (P00533 with tags, fused parts or gaps DEL746-750): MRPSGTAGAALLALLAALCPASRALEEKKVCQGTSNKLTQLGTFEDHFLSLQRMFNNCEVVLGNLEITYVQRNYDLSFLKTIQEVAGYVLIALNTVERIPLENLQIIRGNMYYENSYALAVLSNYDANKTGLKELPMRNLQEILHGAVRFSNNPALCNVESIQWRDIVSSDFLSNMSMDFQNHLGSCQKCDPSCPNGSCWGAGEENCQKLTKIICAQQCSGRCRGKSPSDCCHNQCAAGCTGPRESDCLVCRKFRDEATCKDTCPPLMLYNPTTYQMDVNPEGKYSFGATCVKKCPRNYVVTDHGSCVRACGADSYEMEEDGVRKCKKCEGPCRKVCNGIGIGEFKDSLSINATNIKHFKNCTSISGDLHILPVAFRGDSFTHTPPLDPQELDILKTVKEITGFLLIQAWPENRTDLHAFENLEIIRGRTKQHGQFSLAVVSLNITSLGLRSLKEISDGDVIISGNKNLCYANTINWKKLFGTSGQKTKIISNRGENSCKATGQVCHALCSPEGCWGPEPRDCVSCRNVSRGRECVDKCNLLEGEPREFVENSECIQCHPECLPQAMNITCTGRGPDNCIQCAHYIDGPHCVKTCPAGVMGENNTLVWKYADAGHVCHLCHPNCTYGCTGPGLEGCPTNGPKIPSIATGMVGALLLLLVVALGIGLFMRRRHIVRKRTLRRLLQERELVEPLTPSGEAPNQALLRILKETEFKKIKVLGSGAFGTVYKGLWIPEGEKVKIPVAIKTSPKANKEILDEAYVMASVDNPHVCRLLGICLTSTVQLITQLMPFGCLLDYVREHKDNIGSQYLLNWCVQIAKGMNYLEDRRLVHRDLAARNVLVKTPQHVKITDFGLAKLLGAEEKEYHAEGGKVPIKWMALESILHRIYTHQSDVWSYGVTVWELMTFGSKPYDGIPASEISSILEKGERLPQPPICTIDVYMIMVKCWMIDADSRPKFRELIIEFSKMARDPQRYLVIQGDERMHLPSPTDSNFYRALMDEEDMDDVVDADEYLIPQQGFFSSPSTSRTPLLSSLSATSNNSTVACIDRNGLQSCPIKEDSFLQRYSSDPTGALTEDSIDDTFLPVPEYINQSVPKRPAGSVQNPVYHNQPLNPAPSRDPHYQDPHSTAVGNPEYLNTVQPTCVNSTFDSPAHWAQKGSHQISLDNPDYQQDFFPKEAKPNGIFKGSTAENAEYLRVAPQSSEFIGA
Chain of EPHB2 (P29323 whole entry): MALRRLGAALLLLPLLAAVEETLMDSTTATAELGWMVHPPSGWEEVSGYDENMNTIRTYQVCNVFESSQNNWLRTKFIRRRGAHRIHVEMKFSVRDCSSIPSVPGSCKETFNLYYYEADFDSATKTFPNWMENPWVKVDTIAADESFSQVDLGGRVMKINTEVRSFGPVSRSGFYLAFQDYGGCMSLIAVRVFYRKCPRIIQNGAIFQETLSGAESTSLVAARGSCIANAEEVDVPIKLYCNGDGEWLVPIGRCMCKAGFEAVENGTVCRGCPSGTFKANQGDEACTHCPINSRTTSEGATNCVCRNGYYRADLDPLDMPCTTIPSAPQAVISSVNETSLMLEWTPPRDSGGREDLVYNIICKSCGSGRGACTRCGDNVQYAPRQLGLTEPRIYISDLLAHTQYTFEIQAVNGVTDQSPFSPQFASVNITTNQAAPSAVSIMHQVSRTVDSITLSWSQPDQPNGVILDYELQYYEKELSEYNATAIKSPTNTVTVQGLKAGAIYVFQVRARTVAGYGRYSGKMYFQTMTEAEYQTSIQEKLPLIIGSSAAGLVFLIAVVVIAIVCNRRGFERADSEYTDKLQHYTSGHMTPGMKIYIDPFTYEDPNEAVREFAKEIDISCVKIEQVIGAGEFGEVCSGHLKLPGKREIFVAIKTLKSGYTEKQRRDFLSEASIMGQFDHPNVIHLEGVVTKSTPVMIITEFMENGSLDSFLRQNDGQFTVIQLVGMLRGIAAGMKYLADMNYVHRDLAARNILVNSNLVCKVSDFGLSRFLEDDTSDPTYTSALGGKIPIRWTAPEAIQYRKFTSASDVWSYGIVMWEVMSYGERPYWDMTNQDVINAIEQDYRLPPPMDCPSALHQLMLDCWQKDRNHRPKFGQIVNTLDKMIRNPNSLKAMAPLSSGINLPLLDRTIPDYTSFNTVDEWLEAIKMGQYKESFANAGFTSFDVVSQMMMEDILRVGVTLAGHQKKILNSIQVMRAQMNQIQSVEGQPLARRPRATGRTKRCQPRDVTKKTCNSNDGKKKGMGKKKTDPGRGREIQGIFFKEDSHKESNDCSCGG
Chain of NEK7 (Q8TDX7 whole entry): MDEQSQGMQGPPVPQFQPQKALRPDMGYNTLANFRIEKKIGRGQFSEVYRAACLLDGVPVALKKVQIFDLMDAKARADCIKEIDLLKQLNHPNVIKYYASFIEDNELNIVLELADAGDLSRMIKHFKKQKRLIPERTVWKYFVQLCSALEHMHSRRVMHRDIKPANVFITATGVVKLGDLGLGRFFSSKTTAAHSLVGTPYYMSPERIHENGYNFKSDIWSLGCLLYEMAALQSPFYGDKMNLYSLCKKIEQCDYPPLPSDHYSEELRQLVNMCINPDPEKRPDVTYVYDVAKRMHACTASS

c1ccc2c(c1)Sc1ccccc1N2CCN1CCOCC1 [J54]
remaining binding (PYK2): 100% | remaining binding (ANKK1): 100% | remaining binding (IKK-beta): 100% | remaining binding (IGF1R): 56% | remaining binding (EGFR(E746-A750del)): 76% | remaining binding (MKK7): 79% | remaining binding (ITK): 100% | remaining binding (JNK2): 84% | remaining binding (LZK): 92% | remaining binding (PIK3CD): 100% | remaining binding (TBK1): 89% | remaining binding (EPHB2): 100% | remaining binding (NEK7): 100% | remaining binding (BMX): 100% | remaining binding (SGK3): 94% | remaining binding (TAK1): 97% | remaining binding (PRKCQ): 96% | remaining binding [1]: 98%

Reference: PMC7486443, “Generation of Phenothiazine with Potent Anti-TLK1 Activity for Prostate Cancer Therapy” (iScience, 2020)
